Test results from US12428423B2, “1H-imidazo[4,5-h]quinazoline compound as protein kinase inhibitor” (SHENGKE PHARMACEUTICALS (JIANGSU) LTD., priority 2017, dated 2025).

Columns and labels:
[1] = tested on: neointimal formation; conditions: rats; cited from earlier work
[2] = target: CDK6/cyclin D1 (Homo sapiens (Human), UniProt Q00534); experiment: Biochemical kinase inhibitory assay, CDK6/cyclin D1; conditions: in the presence of 10 μM ATP
Method: Potency determination in the biochemical kinase inhibitory assay. Kinase activity assay and IC50 determination. […] The kinase reaction was initiated by the addition of 1 μg (1.5 μM) of recombinant retinoblastoma protein, 5 μM ATP and 10μ Ci γ-32P-ATP. The reaction was incubated at 30° C. for 20 minutes, and the reaction was stopped by the addition of 2× Laemmli sample buffer, heated at 95° C. for three minutes, and dissolved in 12% acrylamide SDS-PAGE for autoradiography. The corresponding phosphorylated substrate protein bands were quantified using a densitometer (Bio-Rad). […] The compounds disclosed herein were tested in a similar manner for their inhibitory activities against CDK6/cyclin D1, CDK2/cyclin A, CDK5/cyclin P25, CDK9/cyclin Ti, CDK7/cyclin H and CDK19/cyclin C. […] The reaction took place in the presence of 10 μM ATP.

[3] = target: CDK4/cyclin D1 (Homo sapiens (Human), UniProt P11802); experiment: Biochemical kinase inhibitory assay, CDK4/cyclin D1; conditions: recombinant CDK4/cyclin D1; in the presence of 10 μM ATP
Chain of CDK4/cyclin D1 (P11802 whole entry): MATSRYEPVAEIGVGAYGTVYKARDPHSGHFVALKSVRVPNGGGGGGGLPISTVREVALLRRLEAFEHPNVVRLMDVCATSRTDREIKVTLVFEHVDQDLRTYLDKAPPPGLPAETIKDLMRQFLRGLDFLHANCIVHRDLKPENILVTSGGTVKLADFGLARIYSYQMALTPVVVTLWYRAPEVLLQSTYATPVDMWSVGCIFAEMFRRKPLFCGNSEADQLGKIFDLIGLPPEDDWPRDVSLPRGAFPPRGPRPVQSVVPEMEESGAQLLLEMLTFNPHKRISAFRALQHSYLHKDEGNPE
Chain of CDK4/cyclin D1 (P24385 whole entry partner): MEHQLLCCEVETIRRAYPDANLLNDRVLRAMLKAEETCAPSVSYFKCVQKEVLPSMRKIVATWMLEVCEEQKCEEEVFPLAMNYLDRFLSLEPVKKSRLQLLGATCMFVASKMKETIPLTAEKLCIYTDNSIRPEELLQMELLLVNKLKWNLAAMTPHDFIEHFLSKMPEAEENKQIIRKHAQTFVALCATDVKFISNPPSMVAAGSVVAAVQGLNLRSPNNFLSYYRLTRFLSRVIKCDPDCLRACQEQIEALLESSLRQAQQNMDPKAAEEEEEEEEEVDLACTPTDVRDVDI
Method: Potency determination in the biochemical kinase inhibitory assay. Kinase activity assay and IC50 determination. […] The kinase reaction was initiated by the addition of 1 μg (1.5 μM) of recombinant retinoblastoma protein, 5 μM ATP and 10μ Ci γ-32P-ATP. The reaction was incubated at 30° C. for 20 minutes, and the reaction was stopped by the addition of 2× Laemmli sample buffer, heated at 95° C. for three minutes, and dissolved in 12% acrylamide SDS-PAGE for autoradiography. The corresponding phosphorylated substrate protein bands were quantified using a densitometer (Bio-Rad). […] The reaction took place in the presence of 10 μM ATP.

Chain of CDK6/cyclin D1 (Q00534 whole entry): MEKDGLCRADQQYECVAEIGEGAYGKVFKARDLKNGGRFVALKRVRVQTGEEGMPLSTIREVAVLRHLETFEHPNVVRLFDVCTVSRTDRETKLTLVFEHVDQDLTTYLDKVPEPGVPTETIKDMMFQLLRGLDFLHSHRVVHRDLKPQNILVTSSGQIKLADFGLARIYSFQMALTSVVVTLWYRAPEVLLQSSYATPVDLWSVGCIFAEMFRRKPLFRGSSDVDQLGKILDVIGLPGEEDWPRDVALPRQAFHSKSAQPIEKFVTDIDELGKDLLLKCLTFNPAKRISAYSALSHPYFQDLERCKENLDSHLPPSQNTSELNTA
Chain of CDK6/cyclin D1 (P24385 whole entry partner): as the sequence (P24385 whole entry partner) above

## COc1ccc(CNc2nc(N(CCO)CCO)nc3c2ncn3C(C)C)cc1 [CVT-313]
[1]
  inhibition of neointimal formation: more than 80%

## c1cc(Nc2ncc3ccc4ncn(C5CCCC5)c4c3n2)ncc1N1CCOCC1 [Compound I-60]
[2]
  IC50: 2 to 10 nM
[3]
  IC50: 2 to 10 nM

## CC(C)n1cnc2ccc3cnc(Nc4ccc(N5CCNC(C)(C)C5)cn4)nc3c21 [Compound I-11]
[2]
  IC50: 2 to 10 nM
[3]
  IC50: 2 to 10 nM

## CC(C)n1cnc2ccc3cnc(Nc4ccc(N5CCNCC5)cc4F)nc3c21 [Compound I-35]
[2]
  IC50: 10 to 50 nM
[3]
  IC50: 10 to 50 nM

## CC(C)n1cnc2ccc3cnc(Nc4ccc(N5CCC(N(C)C)CC5)c(F)n4)nc3c21 [Compound I-20]
[2]
  IC50: 10 to 50 nM
[3]
  IC50: 10 to 50 nM

## Cc1cc2cnc(Nc3ccc(N4CCOCC4)cn3)nc2c2c1ncn2C(C)C [Compound I-75]
[2]
  IC50: 2 to 10 nM
[3]
  IC50: 2 to 10 nM

## CC(C)n1cnc2ccc3cnc(Nc4ccc(N5CCC(CCCO)CC5)cn4)nc3c21 [Compound I-18]
[2]
  IC50: 10 to 50 nM
[3]
  IC50: 10 to 50 nM

## CC(C)n1cnc2ccc3cnc(Nc4ccc(N5CC6(CNC6)C5)cn4)nc3c21 [Compound I-30]
[2]
  IC50: 10 to 50 nM
[3]
  IC50: 10 to 50 nM

## Cc1nc(Nc2ncc3ccc4ncn(C(C)C)c4c3n2)ccc1N1CCN(C)CC1 [Compound I-4]
[2]
  IC50: 2 to 10 nM
[3]
  IC50: 2 to 10 nM

## CC(C)n1cnc2ccc3cnc(Nc4ccc(N5CCC(N)C5)cn4)nc3c21 (stereo not drawn) [Compound I-22]
[2]
  IC50: 10 to 50 nM
[3]
  IC50: 10 to 50 nM

## CC(C)n1cnc2c(Br)cc3cnc(Nc4ccc(N5CCC6(CC5)CNC6)cn4)nc3c21 [Compound I-71]
[2]
  IC50: 10 to 50 nM
[3]
  IC50: 10 to 50 nM

## Cc1nc(Nc2ncc3cc(Br)c4ncn(C(C)C)c4c3n2)ccc1N1CCNCC1 [Compound I-69]
[2]
  IC50: 2 to 10 nM
[3]
  IC50: 2 to 10 nM

## CC(C)N1CCN(c2ccc(Nc3ncc4ccc5ncn(C(C)C)c5c4n3)nn2)CC1 [Compound I-41]
[2]
  IC50: 50 to 100 nM
[3]
  IC50: 50 to 100 nM

## COc1cc(OC2CCN(C)CC2)ccc1Nc1ncc2ccc3ncn(C(C)C)c3c2n1 [Compound I-37]
[2]
  IC50: 50 to 100 nM
[3]
  IC50: 50 to 100 nM

## Cc1cc2ncn(C(C)C)c2c2nc(Nc3ccc(N4CCOCC4)cn3)ncc12 [Compound I-65]
[2]
  IC50: 50 to 100 nM
[3]
  IC50: 50 to 100 nM

## c1cc(Nc2ncc3ccc4ncn(C5CC5)c4c3n2)ncc1N1CCNCC1 [Compound I-47]
[2]
  IC50: 2 to 10 nM
[3]
  IC50: 2 to 10 nM

## CC(C)n1cnc2ccc3cnc(Nc4ccc(N5CCC6(CCNCC6)C5)cn4)nc3c21 [Compound I-28]
[2]
  IC50: 10 to 50 nM
[3]
  IC50: 10 to 50 nM
